Experimental data as given in patent US20260137671A1, “PDK4 as a Cell-Aging Intervention Target and Its Use in Chemotherapy and Anticancer” (Shanghai Institute of Nutrition and Health, Chinese Academy …, priority 2022, published 2026).

Experiments:
[1] = tested on: mice aged 24 to 27 months; test: Lifespan appraisal of late-life mice; assay type: in vivo, C57BL/6 mice; conditions: PDK4-IN every two weeks, P<0.001 vs Vehicle
Method: FIG. 91. Schematic design for lifespan appraisal of mice. Mice aged 24 to 27 months were administered either Vehicle or PDK4-IN every two weeks, with continuous monitoring of their survival and recording of maximum lifespan.
C57BL/6 mice aged 24 to 27 months were administered either Vehicle or PDK4-IN every two weeks intraperitoneally. The median survival of animals in each group was calculated and indicated. ***, P<0.001.
The earliest deaths occurred approximately 2 months after the last physical function test. C57BL/6 mice aged 19 to 21 months were housed at 3-5 animals per cage. Same as the transplanted mice, the mice were sorted by body weight and randomly assigned to each group, and treated in either control (vehicle) or drug (PDK4) group by persons blinded to the design of the preclinical trial. From the age of 24-27 months, the mice were treated with vehicle or PDK4-IN every 2 weeks, […] for 3 consecutive days at each time. During the course of the study, some mice were removed from their original cages in order to minimize the animal housing stress caused by long-term housing in a single cage. RotaRod and hanging tests were performed monthly because these tests were sensitive and noninvasive. […] During the experiment, no mice were excluded due to fighting, accidental death or dermatitis. For biostatistics, a Cox proportional hazard model was used for survival analysis. […]

[2] = tested on: senescent human stromal cells (PSC27); test: Seahorse XF24 metabolic profiling of senescent stromal cells; assay type: cell-based; set-up: ATP production / basal respiration / maximal respiration: dose or concentration left out as unconfirmed
Method: FIG. 26. OCR of stromal cells was measured using an XF24 Extracellular Flux Analyzer. In simple, 1.5 μM oligomycin, 0.5 μM FCCP and 0.5 μM Rot/Ant were injected sequentially in order into each well. The glycolysis rate was calculated as the difference between the maximum rate measured before injection and the last rate measured before glucose injection. All Seahorse data were normalized to cell numbers, with all metabolic parameters automatically calculated by WAVE software equipped in the Seahorse. OCR, oxygen consumption rate. Oligo, oligomycin. FCCP, carbonyl cyanide 4-(trifluoromethoxy) phenylhydrazone. Rot, rotenone. Ant, antimycin. […]
After 6 hours of drug treatment, the cells were simply washed 3 times with PBS, left in the culture medium for 7-˜10 days, and then the subsequent experiments were performed.
Next, the inventors measured the levels of extracellular fluids. […] Among them, HK2 and LDHA are glycolysis-related factors, whereas IDH2, IDH3, OGDH and CS are TCA cycle-involving enzymes. As overexpression of PDK4 per se in normal cells neither caused or abrogated senescence, nor affected the SASP (FIG. 38), the inventors reasoned that senescent cell metabolism was correlated with and likely underpinned by expression of key factors involved in glucose consumption and linked with production of pyruvate, lactate and multiple other metabolites.

[3] = tested on: tumor tissues of mice (PC3/PSC27 xenografts); test: In vivo cellular senescence and SASP expression in xenograft tumors (LCM transcripts, SA-β-Gal staining); set-up: species or system SCID mice
From the text: (§1) FIG. 66. Transcript assessment of several canonical SASP factors expressed in stromal cells isolated from tumors in SCID mice. LCM isolation, total RNA preparation and expression assays on tissues from animals with simultaneously implanted stromal cells and cancer cells. Note that the group measured as of the lowest value was used as normalization baseline per factor.
as §1, with “67.” for “66.”, “individual” for “several”, “factors (AREG), aging markers (p16/p21) and PDK4” for “factors”
FIG. 68. Representative IHC images of SA-β-Gal staining chromatograms from tissues isolated from animals subjected to placebo or drug treatments. Scale bar, 100 μm. Right, Comparative statistical analysis of SA-β-Gal staining for tissues in mice mentioned above.
Senescence-associated β-galactosidase (SA-β-Gal) staining was performed following a previously reported procedure (Debacq-Chainiaux et al., 2009). Briefly, cells in culture dishes were washed with PBS and fixed at room temperature. Cells were fixed in 2% formaldehyde and 0.2% glutaraldehyde for 3 minutes. SA-β-Gal was used for staining with freshly prepared staining solution overnight at 37° C. Images were taken on the next day and the percentage of positive cells per unit area was calculated.
For pre-clinical chemotherapeutic studies, mice received subcutaneous implantation were given standard laboratory diets. […] The time points were on the first day of the third, fifth and seventh weeks, with a total of 3 cycles of treatment, and each cycle lasted for 2 weeks. After the course of treatment, mouse […] were collected for tumor measurement and histological analysis. […]

[4] = tested on: PC3 cells xenografted together with PSC27 cells; test: PC3/PSC27 xenograft, tumor end volume after chemotherapy and/or PDK4-IN; assay type: in vivo, SCID mice
Method: All experimental mouse experiments were carried out in strict accordance with the relevant regulations of the Institutional Animal Care and Use Committee (IACUC), Shanghai Institutes for Biological Sciences, Chinese Academy of Sciences. Immuno-deficient mice ICR SCID mice (body weight about 25 g) aged about 6 weeks were used for animal experiments related to the present disclosure. Stromal cells PSC27 and epithelial cells were mixed at a ratio of 1:4, and each graft contained 1.25×10^6 cells for tissue remodeling. The xenograft tumors were implanted into mice by subcutaneous transplantation, and the animals were euthanized 8 weeks after the end of the transplantation surgery. […] For pre-clinical chemotherapeutic studies, mice received subcutaneous implantation were given standard laboratory diets. […] The time points were on the first day of the third, fifth and seventh weeks, with a total of 3 cycles of treatment, and each cycle lasted for 2 weeks. After the course of treatment, mouse […] were collected for tumor measurement and histological analysis. […] The chemotherapy experiment ended at the end of the 8th week, and the mice were dissected immediately after sacrifice, and the xenograft tumors were collected and used for pathological system analysis. To closely mimic clinical conditions involving chemotherapeutic drugs, the inventors designed a preclinical regimen incorporating a genotoxic drug (MIT) and/or the PDK4 inhibitor (PDK4-IN) (FIG. 63).

[5] = senescence-associated change, PDK4-IN treated
[6] = PDK4-IN 10.0 mg/kg combined with MIT 0.2 mg/kg i.p., end of 8-week regimen

O=C1c2ccccc2C(=O)c2c1cccc2-c1cnn(C2CCNCC2)c1 [PDK4-IN]
lifespan during the intervention period [1]: significantly extended the lifespan
H^+ (proton) leak [2, 5]: reversed changes
lactate production [2, 5]: reversed changes
non-mitochondrial oxygen consumption [2, 5]: reversed changes
pH fluctuation [2, 5]: reversed changes
ATP production ([2]; senescent cells, PDK4-IN-1): further promoted
basal respiration ([2]; senescent cells, PDK4-IN-1): further promoted
maximal respiration ([2]; senescent cells, PDK4-IN-1): further promoted
SA-β-gal positivity in tumor tissues ([3]; histological staining, FIG. 68): neither induced senescence nor inhibited senescence
cellular senescence / SASP factor and senescence marker expression in vivo ([3]; single agent or in combination with MIT, FIGS. 66-67): neither induced nor affected cellular senescence
further decline of tumor volume over MIT alone [4, 6]: 35.5%
total tumor shrinkage compared to the control group [4, 6]: 72.6%
effect on tumor volume as single agent ([4]; PDK4-IN alone, 10.0 mg/kg i.p.): did not provide noticeable benefits
